From US20100240700A1, “PROPHYLACTIC PRETREATMENT WITH ANTIOXIDANTS” (MITOS PHARMACEUTICALS, INC., priority 2003, published 2010) come the findings set out here.

For this assay, the system named is cerebral ischemia (infarcts) in patients with aneurysmal subarachnoid hemorrhage. The assay is described as follows: clinical study of Tempol on prevention of cerebral ischemia during treatment of aneurysms (MRI-DWI infarct count and size). It counts as in vivo. The settings on record: human patients, 1-300 mg/kg orally before and after surgical or endovascular treatment; MRI-DWI 1-3 days and 6 weeks post-treatment. The procedure:
This example describes a clinical study to determine the effect of Tempol on the prevention of cerebral ischemia during treatment of aneurysms in human patients that have bled. Patients, having suffered aneurysmal subarachnoid hemorrhaging, undergo magnetic resonance imaging (MRI-DWI) to count the number of infarcts and measure their size. Either 1-300 mg/kg of Tempol or a placebo are orally administered to the human patients. Patients undergo treatment for subarachnoid hemorrhaging (e.g., surgical or endovascular). After surgery, 1-300 mg/kg of Tempol or a placebo are orally administered to the patients. 1-3 days post-treatment, follow up MRI-DWI is used to count and measure the size of infarcts. The number and size of the infarcts is also measured 6 weeks post-treatment using MRI-DWI.

For the molecule `CC1(C)CC(O)CC(C)(C)N1[O]` [Tempol, 4-hydroxy-2,2,6,6-tetramethylpiperidine-1-oxyl], the “number of infarcts (MRI-DWI) versus placebo” value is “fewer” and the “size of infarcts (MRI-DWI) versus placebo” value is on record as “smaller sized”.
